What was measured:
Experiment in all cases: MIC susceptibility profiling, porinated efflux platform
Format in all cases: cell-based, Escherichia coli
EKO-35 araC::mexCD Pore = settings: for Fold changes of MICs: EKO-35 araC::mexCD Pore compared to EKO-35-Pore; for Minimum inhibitory concentration / MIC: EKO-35 araC::mexCD Pore, technical duplicate; for MIC: Escherichia coli, read-out: Minimum inhibitory concentration
In short: (§1)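 MIC values come from background-corrected OD600 readings (pre-incubation OD subtracted) after 18 h at 37 °C and 900 rpm in MHB II. Compounds were tested in duplicate as 2-fold dilutions. The inoculum came from 18 h LB cultures adjusted to OD600 ~1.0 and diluted 1/2000, and the pore-bearing strains were vancomycin-checked beforehand.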

[1] = system: EKO-35 araC::acrBD408A Pore; settings: for Fold changes of MICs: EKO-35 araC::acrBD408A Pore compared to EKO-35-Pore; for Minimum inhibitory concentration / MIC: EKO-35 araC::acrBD408A Pore, technical duplicate; for MIC: Escherichia coli, read-out: Minimum inhibitory concentration
In short: as §1

EKO-35 araC::acrEF Pore = settings: for Fold changes of MICs: EKO-35 araC::acrEF Pore compared to EKO-35-Pore; for Minimum inhibitory concentration, EKO-35 araC::acrEF Pore / MIC: Table 14A, porinated, technical duplicate; for MIC: Escherichia coli, read-out: Minimum inhibitory concentration, EKO-35 araC::acrEF Pore
In short: as §1

EKO-35 araC::macAB Pore = settings: for Fold changes of MICs: EKO-35 araC::macAB Pore compared to EKO-35-Pore; for Minimum inhibitory concentration / MIC: EKO-35 araC::macAB Pore, technical duplicate; for MIC: Escherichia coli, read-out: Minimum inhibitory concentration
In short: as §1

EKO-35 araC::acrD Pore = settings: for Fold changes of MICs: EKO-35 araC::acrD Pore compared to EKO-35-Pore; for Minimum inhibitory concentration, EKO-35 araC::acrD Pore / MIC: Table 14A, porinated, technical duplicate; for MIC: Escherichia coli, read-out: Minimum inhibitory concentration, EKO-35 araC::acrD Pore
In short: as §1

EKO-35 araC::emrAB Pore = settings: for Fold changes of MICs: EKO-35 araC::emrAB Pore compared to EKO-35-Pore; for Minimum inhibitory concentration / MIC: EKO-35 araC::emrAB Pore, technical duplicate; for MIC: Escherichia coli, read-out: Minimum inhibitory concentration
In short: as §1

EKO-35 araC::emrKY Pore = settings: for Fold changes of MICs: EKO-35 araC::emrKY Pore compared to EKO-35-Pore; for Minimum inhibitory concentration / MIC: EKO-35 araC::emrKY Pore, technical duplicate; for MIC: Escherichia coli, read-out: Minimum inhibitory concentration
In short: as §1

Structure (SMILES)	Fold changes of MICs (EKO-35 araC::mexCD Pore) [fold]	Minimum inhibitory concentration (EKO-35 araC::mexCD Pore) [µg/mL]	Fold changes of MICs [1] [fold]	Minimum inhibitory concentration [1] [µg/mL]	Fold changes of MICs (EKO-35 araC::acrEF Pore) [fold]	Minimum inhibitory concentration, EKO-35 araC::acrEF Pore (EKO-35 araC::acrEF Pore) [µg/mL]	Fold changes of MICs (EKO-35 araC::macAB Pore) [fold]	Minimum inhibitory concentration (EKO-35 araC::macAB Pore) [µg/mL]	Fold changes of MICs (EKO-35 araC::acrD Pore) [fold]	Minimum inhibitory concentration, EKO-35 araC::acrD Pore (EKO-35 araC::acrD Pore) [µg/mL]	Fold changes of MICs (EKO-35 araC::emrAB Pore) [fold]	Minimum inhibitory concentration (EKO-35 araC::emrAB Pore) [µg/mL]	Fold changes of MICs (EKO-35 araC::emrKY Pore) [fold]	MIC (EKO-35 araC::mexCD Pore) [µg/mL]	MIC [1] [µg/mL]	MIC (EKO-35 araC::acrEF Pore) [µg/mL]	MIC (EKO-35 araC::macAB Pore) [µg/mL]	MIC (EKO-35 araC::acrD Pore) [µg/mL]	MIC (EKO-35 araC::emrAB Pore) [µg/mL]	MIC (EKO-35 araC::emrKY Pore) [µg/mL]	also measured
C=C1CCO[C@]2([C@@H](O)[C@@](C)(O)CO)NC(=O)[C@@]1(O)NC2=O [Bicyclomycin]	1	200	1	200	1	200	1	200	1	200	1	200	1	–	–	–	–	–	–	–	Minimum inhibitory concentration (EKO-35 araC::emrKY Pore): 200 µg/mL
N#CC(C#N)=NNc1cccc(Cl)c1 [CCCP]	1	6.25	1	6.25	1	3.125	1	6.25	1	6.25	2	12.5	1	–	–	–	–	–	–	–	efflux pump-mediated resistance vs EKO-35-Pore (EKO-35 araC::emrAB Pore; EmrAB, porinated strain): no longer provided resistance; Minimum inhibitory concentration (EKO-35 araC::emrKY Pore): 6.25 µg/mL
[H]/N=C(\N/C(=N/[H])NCCCCCCNC(=N)NC(=N)Nc1ccc(Cl)cc1)Nc1ccc(Cl)cc1 [Chlorhexidine]	1	–	1	–	1	–	1	–	1	–	1	–	1	0.391	0.391	0.391	0.391	0.391	0.391	0.391	–
CCCCCCCCCCCCOS(=O)(=O)[O-].[Na+] [SDS, sodium dodecyl sulphate]	4	–	1	–	32	–	1	–	32	–	4	–	1	125	31.2	–	31.2	–	125	31.2	–
CN[C@@H]1[C@H](O)[C@H](NC)[C@H]2O[C@@]3(O)C(=O)C[C@@H](C)O[C@H]3O[C@@H]2[C@H]1O [Spectinomycin]	1	–	1	–	1	–	1	–	2	–	1	–	1	–	–	–	–	25	–	–	–
NCCCNCCCCNCCCN [Spermine]	1	–	–	–	1	–	1	–	1	–	1	–	1	–	500	–	–	–	–	–	–
[H]/N=C(/N)N[C@H]1[C@H](O)[C@@H](O)[C@H](O[C@@H]2O[C@@H](C)[C@](O)(C=O)[C@H]2O[C@@H]2O[C@@H](CO)[C@H](O)[C@@H](O)[C@@H]2NC)[C@@H](N/C(N)=N\[H])[C@@H]1O [Streptomycin]	1	–	1	–	1	–	1	–	1	–	1	–	1	3.12	1.56	3.12	3.12	3.12	3.12	3.12	–
Nc1ccc(S(=O)(=O)Nc2nccs2)cc1 [Sulfathiazole]	1	–	0	–	1	–	2	–	1	–	2	–	1	–	1.25	–	10	–	10	–	–
C[n+]1c2cc(N)ccc2cc2ccc(N)cc21.[Cl-] [acriflavine]	4	0.391	1	0.098	8	0.781	2	0.195	2	0.195	2	0.195	1	–	–	–	–	–	–	–	Minimum inhibitory concentration (EKO-35 araC::emrKY Pore): 0.098 µg/mL
CC1(C)S[C@@H]2[C@H](NC(=O)[C@H](N)c3ccccc3)C(=O)N2[C@H]1C(=O)O [ampicillin]	1	–	1	–	2	–	1	–	16	–	1	–	2	1.56	0.781	3.12	1.56	25	0.781	3.12	–
CC[C@H]1OC(=O)[C@H](C)[C@@H](O[C@H]2C[C@@](C)(OC)[C@@H](O)[C@H](C)O2)[C@H](C)[C@@H](O[C@@H]2O[C@H](C)C[C@H](N(C)C)[C@H]2O)[C@](C)(O)C[C@@H](C)CN(C)[C@H](C)[C@@H](O)[C@]1(C)O [azithromycin]	2	–	2	–	4	–	2	–	1	–	1	–	1	0.098	0.098	0.195	0.098	0.024	0.049	0.024	efflux pump-mediated resistance vs EKO-35-Pore (EKO-35 araC::mexCD Pore; MexCD, OM compromised): no longer associated MexCD with resistance; fold increase of MIC over EKO-35 (EKO-35 araC::macAB Pore; MacAB with a porinated OM): 2 fold
O=C(N[C@H](CO)[C@H](O)c1ccc([N+](=O)[O-])cc1)C(Cl)Cl [chloramphenicol]	1	–	1	–	1	–	1	–	1	–	1	–	1	0.781	0.781	0.781	0.781	0.781	0.781	0.391	–
O=C(Nc1cccc(Oc2c(F)c(F)c(F)c(F)c2F)c1)c1ccccc1 [compound 1]	1	320	1	320	1	320	1	320	1	320	1	320	1	–	–	–	–	–	–	–	Minimum inhibitory concentration (EKO-35 araC::emrKY Pore): 320 µg/mL
